Assay results reported in patent US9988400B2 (Genentech, Inc., priority 2013, dated 2018).

target: T1, HEK cells stably transfected with tetracycline inducible hNR1 and hNR2A (Homo sapiens, UniProt Q05586+Q12879); test: Assay 1: Cell-Based Assay, cytosolic calcium response to positive allosteric modulators (with 30 μM glycine and 300 nM L-glutamate, EC30); conditions: Table 3; cytosolic calcium response, with 30 μM glycine and 300 nM L-glutamate (EC30); — = no plateau was reached
T1 construct: expressed in transfected cells; host or cells: HEK cells, stably transfected, tetracycline/doxycycline inducible
Procedure, shortened: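 Cells induced 24 h with 7.5 μg mL^−1 doxycycline plus 500 μM (+)-ketamine, loaded 60 min at 37 °C with calcium dye in Mg-free HBSS (1.8 mM Ca, probenecid, 10 μM (+)-ketamine, pH 7.15). Peak RFU over 5 min after compound addition, scaled to 100 μM L-glutamate (100%) and 0 μM (0%); four-parameter Hill fit for EC50, max % if no plateau.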

T1 sequence (Q12879 23-1464, other chains not shown): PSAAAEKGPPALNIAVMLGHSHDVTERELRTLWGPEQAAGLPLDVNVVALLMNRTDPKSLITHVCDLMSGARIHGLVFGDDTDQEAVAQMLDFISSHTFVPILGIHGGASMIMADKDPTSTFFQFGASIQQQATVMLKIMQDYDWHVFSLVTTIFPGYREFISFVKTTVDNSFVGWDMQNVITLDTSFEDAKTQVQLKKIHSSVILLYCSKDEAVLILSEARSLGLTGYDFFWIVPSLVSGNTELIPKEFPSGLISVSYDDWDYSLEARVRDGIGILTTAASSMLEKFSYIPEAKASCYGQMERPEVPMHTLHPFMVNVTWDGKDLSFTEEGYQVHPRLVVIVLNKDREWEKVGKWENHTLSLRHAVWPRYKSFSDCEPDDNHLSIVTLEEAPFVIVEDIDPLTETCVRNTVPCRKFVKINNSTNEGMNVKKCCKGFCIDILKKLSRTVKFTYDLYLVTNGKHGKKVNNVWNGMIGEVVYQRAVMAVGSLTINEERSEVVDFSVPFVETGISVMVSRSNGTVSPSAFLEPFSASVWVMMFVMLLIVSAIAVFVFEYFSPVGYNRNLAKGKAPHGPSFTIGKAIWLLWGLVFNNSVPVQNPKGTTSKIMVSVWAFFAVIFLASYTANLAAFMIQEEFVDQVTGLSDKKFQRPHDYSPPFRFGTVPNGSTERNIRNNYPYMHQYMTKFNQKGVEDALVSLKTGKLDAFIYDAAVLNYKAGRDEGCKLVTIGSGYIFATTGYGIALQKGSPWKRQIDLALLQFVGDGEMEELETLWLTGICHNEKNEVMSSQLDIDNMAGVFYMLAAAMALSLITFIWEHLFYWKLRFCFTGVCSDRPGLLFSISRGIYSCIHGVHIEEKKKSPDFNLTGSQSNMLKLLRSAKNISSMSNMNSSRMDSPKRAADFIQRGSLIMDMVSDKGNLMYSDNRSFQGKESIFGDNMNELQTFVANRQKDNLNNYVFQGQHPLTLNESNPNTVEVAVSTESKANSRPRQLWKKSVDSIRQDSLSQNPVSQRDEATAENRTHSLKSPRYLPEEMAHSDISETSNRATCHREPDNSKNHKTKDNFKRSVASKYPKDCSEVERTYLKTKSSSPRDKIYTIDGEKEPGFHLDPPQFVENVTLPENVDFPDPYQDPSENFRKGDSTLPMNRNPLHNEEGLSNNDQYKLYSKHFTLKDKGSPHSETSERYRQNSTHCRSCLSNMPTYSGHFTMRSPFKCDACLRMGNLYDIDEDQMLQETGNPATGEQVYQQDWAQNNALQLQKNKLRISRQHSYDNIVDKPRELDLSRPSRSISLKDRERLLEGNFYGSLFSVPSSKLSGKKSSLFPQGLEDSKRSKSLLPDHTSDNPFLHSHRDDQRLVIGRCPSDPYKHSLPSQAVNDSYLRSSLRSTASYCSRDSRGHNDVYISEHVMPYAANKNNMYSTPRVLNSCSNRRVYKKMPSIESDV

| SMILES | EC50 |
| --- | --- |
| CNC(=O)c1c(C(F)(F)F)sc2nc(Cn3nc(C(F)(F)F)cc3C3CC3)cc(=O)n12 [compound 53, 7-[[5-cyclopropyl-3-(trifluoromethyl)pyrazol-1-yl]methyl]-N-methyl-5-oxo-2-(trifluoromethyl)thiazolo[3,2-a]pyrimidine-3-carboxamide] | 0.635 µM |
| CNC(=O)c1c(C(F)(F)F)sc2nc(Cn3nc(C4CC4)cc3C(F)(F)F)cc(=O)n12 [compound 54, 7-[[3-cyclopropyl-5-(trifluoromethyl)pyrazol-1-yl]methyl]-N-methyl-5-oxo-2-(trifluoromethyl)thiazolo[3,2-a]pyrimidine-3-carboxamide] | 2.2 µM |
| CNC(=O)c1c(C(F)(F)F)sc2nc(Cn3nc(C(F)(F)F)cc3Cl)cc(=O)n12 [compound 55, 7-[[5-chloro-3-(trifluoromethyl)pyrazol-1-yl]methyl]-N-methyl-5-oxo-2-(trifluoromethyl)thiazolo[3,2-a]pyrimidine-3-carboxamide] | 1.16 µM |
| CNC(=O)c1c(C(F)(F)F)sc2nc(Cn3nc(Cl)cc3C(F)(F)F)cc(=O)n12 [compound 56, 7-[[3-chloro-5-(trifluoromethyl)pyrazol-1-yl]methyl]-N-methyl-5-oxo-2-(trifluoromethyl)thiazolo[3,2-a]pyrimidine-3-carboxamide] | 2.27 µM |
| Cc1sc2nc(Cn3nc(C(F)(F)F)cc3C3CC3)cc(=O)n2c1C(=O)NCC(F)(F)F [compound 57, 7-[[5-cyclopropyl-3-(trifluoromethyl)pyrazol-1-yl]methyl]-2-methyl-5-oxo-N-(2,2,2-trifluoroethyl)thiazolo[3,2-a]pyrimidine-3-carboxamide] | 0.627 µM |
| Cc1sc2nc(Cn3nc(C4CC4)cc3C(F)(F)F)cc(=O)n2c1C(=O)NCC(F)(F)F [compound 58, 7-[[3-cyclopropyl-5-(trifluoromethyl)pyrazol-1-yl]methyl]-2-methyl-5-oxo-N-(2,2,2-trifluoroethyl)thiazolo[3,2-a]pyrimidine-3-carboxamide] | 6.53 µM |
| CNC(=O)c1c(C)sc2nc(Oc3cccc(C(F)(F)F)c3F)cc(=O)n12 [compound 59, 7-[2-fluoro-3-(trifluoromethyl)phenoxy]-N,2-dimethyl-5-oxo-thiazolo[3,2-a]pyrimidine-3-carboxamide] | 8.22 µM |
| CCNC(=O)c1c(Cl)sc2nc(Cc3cccc(C(F)(F)F)c3F)cc(=O)n12 [compound 60, 2-chloro-N-ethyl-7-[[2-fluoro-3-(trifluoromethyl)phenyl]methyl]-5-oxo-thiazolo[3,2-a]pyrimidine-3-carboxamide] | 3.22 µM |
| CNC(=O)c1c(C(F)(F)F)sc2nc(Cn3nc(C(F)(F)F)cc3C)cc(=O)n12 [compound 61, N-methyl-7-[[5-methyl-3-(trifluoromethyl)pyrazol-1-yl]methyl]-5-oxo-2-(trifluoromethyl)thiazolo[3,2-a]pyrimidine-3-carboxamide] | 8.06 µM |
| CNC(=O)c1c(C(F)(F)F)sc2nc(Cn3nc(C)cc3C(F)(F)F)cc(=O)n12 [compound 62, N-methyl-7-[[3-methyl-5-(trifluoromethyl)pyrazol-1-yl]methyl]-5-oxo-2-(trifluoromethyl)thiazolo[3,2-a]pyrimidine-3-carboxamide] | 24.6 µM |
| CNC(=O)c1c(C(F)(F)F)sc2nc(Cc3cccc(C(F)(F)F)c3F)cc(=O)n12 [compound 63, 7-[[2-fluoro-3-(trifluoromethyl)phenyl]methyl]-N-methyl-5-oxo-2-(trifluoromethyl)thiazolo[3,2-a]pyrimidine-3-carboxamide] | 3.71 µM |
| CNC(=O)c1c(C(F)(F)F)sc2nc(Cc3cccc(Cl)c3F)cc(=O)n12 [compound 64, 7-[(3-chloro-2-fluoro-phenyl)methyl]-N-methyl-5-oxo-2-(trifluoromethyl)thiazolo[3,2-a]pyrimidine-3-carboxamide] | 12.1 µM |
| Cc1sc2nc(Cn3nc(C(F)(F)F)cc3Cl)cc(=O)n2c1C(=O)NCC(F)(F)F [compound 65, 7-[[5-chloro-3-(trifluoromethyl)pyrazol-1-yl]methyl]-2-methyl-5-oxo-N-(2,2,2-trifluoroethyl)thiazolo[3,2-a]pyrimidine-3-carboxamide] | 0.551 µM |
| Cc1sc2nc(Cn3nc(Cl)cc3C(F)(F)F)cc(=O)n2c1C(=O)NCC(F)(F)F [compound 66, 7-[[3-chloro-5-(trifluoromethyl)pyrazol-1-yl]methyl]-2-methyl-5-oxo-N-(2,2,2-trifluoroethyl)thiazolo[3,2-a]pyrimidine-3-carboxamide] | 1.69 µM |
| Cc1cc(C(F)(F)F)n(Cc2cc(=O)n3c(C(=O)NCC(F)(F)F)c(C)sc3n2)n1 [compound 67, 2-methyl-7-[[3-methyl-5-(trifluoromethyl)pyrazol-1-yl]methyl]-5-oxo-N-(2,2,2-trifluoroethyl)thiazolo[3,2-a]pyrimidine-3-carboxamide] | 36.6 µM |
| CCNC(=O)c1c(C)sc2nc(Oc3cccc(C#N)c3F)cc(=O)n12 [compound 68, 7-(3-cyano-2-fluoro-phenoxy)-N-ethyl-2-methyl-5-oxo-thiazolo[3,2-a]pyrimidine-3-carboxamide] | 30.4 µM |

| SMILES | EC50 |
| --- | --- |
| CCNC(=O)c1c(Cl)sc2nc(Cc3cccc(C#N)c3F)cc(=O)n12 [compound 69, 2-chloro-7-[(3-cyano-2-fluoro-phenyl)methyl]-N-ethyl-5-oxo-thiazolo[3,2-a]pyrimidine-3-carboxamide] | 11.2 µM |
| CNC(=O)c1c(C(F)(F)F)sc2nc(Cc3cccc(C#N)c3F)cc(=O)n12 [compound 70, 7-[(3-cyano-2-fluoro-phenyl)methyl]-N-methyl-5-oxo-2-(trifluoromethyl)thiazolo[3,2-a]pyrimidine-3-carboxamide] | 2.92 µM |
| CCNC(=O)Cc1c(C)sc2nc(Cc3cccc(C(F)(F)F)c3F)cc(=O)n12 [compound 71, N-ethyl-2-[7-[[2-fluoro-3-(trifluoromethyl)phenyl]methyl]-2-methyl-5-oxo-thiazolo[3,2-a]pyrimidin-3-yl]acetamide] | 1.37 µM |
| CNC(=O)c1c(C)sc2nc(Cn3cc(C(F)(F)F)cn3)cc(=O)n12 [compound 72, N,2-dimethyl-5-oxo-7-[[4-(trifluoromethyl)pyrazol-1-yl]methyl]thiazolo[3,2-a]pyrimidine-3-carboxamide] | 62.6 µM |
| Cc1sc2nc(Oc3cccc(C(F)(F)F)c3F)cc(=O)n2c1C1CC1 [compound 73, 3-cyclopropyl-7-[2-fluoro-3-(trifluoromethyl)phenoxy]-2-methyl-thiazolo[3,2-a]pyrimidin-5-one] | 40.1 µM |
| N#Cc1cccc(Cc2cc(=O)n3c(C4CC4C(F)(F)F)c(Cl)sc3n2)c1F (centres unmarked) [compound 74, 3-[[2-chloro-5-oxo-3-[2-(trifluoromethyl)cyclopropyl]thiazolo[3,2-a]pyrimidin-7-yl]methyl]-2-fluoro-benzonitrile] | 0.507 µM |
| CNC(=O)Cc1c(C(F)(F)F)sc2nc(Cc3cccc(C(F)(F)F)c3F)cc(=O)n12 [compound 75, 2-[7-[[2-fluoro-3-(trifluoromethyl)phenyl]methyl]-5-oxo-2-(trifluoromethyl)thiazolo[3,2-a]pyrimidin-3-yl]-N-methyl-acetamide] | 28.9 µM |
| CCNC(=O)c1c(C)sc2nc(Cn3nc(C(F)(F)F)cc3C3CC3)cc(=O)n12 [compound 76, 7-[[5-cyclopropyl-3-(trifluoromethyl)pyrazol-1-yl]methyl]-N-ethyl-2-methyl-5-oxo-thiazolo[3,2-a]pyrimidine-3-carboxamide] | 0.436 µM |
| Cc1sc2nc(Oc3cccc(C#N)c3F)cc(=O)n2c1C1CC1C(F)(F)F (centres unmarked) [compound 77, 2-fluoro-3-[2-methyl-5-oxo-3-[2-(trifluoromethyl)cyclopropyl]thiazolo[3,2-a]pyrimidin-7-yl]oxy-benzonitrile] | 0.271 µM |
| CNC(=O)Cc1c(C(F)(F)F)sc2nc(Cn3nc(C(F)(F)F)cc3C3CC3)cc(=O)n12 [compound 78, 2-[7-[[5-cyclopropyl-3-(trifluoromethyl)pyrazol-1-yl]methyl]-5-oxo-2-(trifluoromethyl)thiazolo[3,2-a]pyrimidin-3-yl]-N-methyl-acetamide] | 2.96 µM |
| CNC(=O)Cc1c(C(F)(F)F)sc2nc(Cn3nc(C4CC4)cc3C(F)(F)F)cc(=O)n12 [compound 79, 2-[7-[[3-cyclopropyl-5-(trifluoromethyl)pyrazol-1-yl]methyl]-5-oxo-2-(trifluoromethyl)thiazolo[3,2-a]pyrimidin-3-yl]-N-methyl-acetamide] | 14.3 µM |
| Cc1sc2nc(Cc3cccc(C(F)(F)F)c3F)cc(=O)n2c1Cc1ncc[nH]1 [compound 81, 7-[[2-fluoro-3-(trifluoromethyl)phenyl]methyl]-3-(1H-imidazol-2-ylmethyl)-2-methyl-thiazolo[3,2-a]pyrimidin-5-one] | 52 µM |
| CCNC(=O)c1c(C)sc2nc(CN(CC)c3ccc(F)cc3)cc(=O)n12 [compound 82, N-ethyl-7-[(N-ethyl-4-fluoro-anilino)methyl]-2-methyl-5-oxo-thiazolo[3,2-a]pyrimidine-3-carboxamide] | 0.0787 µM |
| CCNC(=O)c1c(C(F)(F)F)sc2nc(CN(CC)c3ccc(F)cc3)cc(=O)n12 [compound 83, N-ethyl-7-[(N-ethyl-4-fluoro-anilino)methyl]-5-oxo-2-(trifluoromethyl)thiazolo[3,2-a]pyrimidine-3-carboxamide] | 0.154 µM |
| CC1CC1c1c(C(F)(F)F)sc2nc(Cc3cccc(C#N)c3F)cc(=O)n12 (centres unmarked) [compound 84, 2-fluoro-3-[[3-(2-methylcyclopropyl)-5-oxo-2-(trifluoromethyl)thiazolo[3,2-a]pyrimidin-7-yl]methyl]benzonitrile] | 11.2 µM |
| CC1CC1c1c(Cl)sc2nc(Cc3cccc(C#N)c3F)cc(=O)n12 (centres unmarked) [compound 85, 3-[[2-chloro-3-(2-methylcyclopropyl)-5-oxo-thiazolo[3,2-a]pyrimidin-7-yl]methyl]-2-fluoro-benzonitrile] | 2.39 µM |
